The values below are quoted from earlier work in US20240180165A1, “ACTIVATION OF BIONEMATICIDE AND PLANT GROWTH PROMOTING FUNCTIONS IN A BIOTECHNOLOGICAL SOLUTION COMPRISING TWO OR MORE BACILLUS SPECIES AND ALLICIN; INDUSTRIAL PROCESS AND APPLICATION THEREOF” (TOTAL BIOTECNOLOGIA INDÚSTRIA E COMÉRICO S/A, priority 2021, published 2024).

The series relates to Gram-negative and Gram-positive bacteria, including the Bacillus genus. To be noted: even at low concentrations (UM).

With `C=CCS[S+]([O-])CC=C` (stereo not shown) [allicin], the antimicrobial activity entry is given as “broad antimicrobial activity”.
